# Laboratory results reported in publication PMC13453992, “Comparison of ex vivo placenta perfusion and in vitro BeWo b30 cell models for assessing transfer of developmental and reproductive toxic compounds” (Archives of Toxicology, 2026).
# Experiment: Fraction unbound in placental perfusion buffer by Rapid Equilibrium Dialysis
# Assay type: in vitro ADME
# Settings: placenta perfusion buffer with albumin; RED 4 hours at 37 °C
# Method: Free drug concentrations in perfusion buffer were determined using Rapid Equilibrium Dialysis (RED) single use plates (ThermoScientific, Rockford, USA) according to the manufacturer’s instructions. In short, placental perfusion buffer samples from multiple timepoints were loaded on one side of the RED and clean placenta perfusion buffer without albumin was added to the other side. This was incubated on a ThermoMixer C (Eppendorf Nederland B.V., Nijmegen, The Netherlands) at 250 rpm for 4 hours at 37 °C. The average from all measurements was taken to determine the average fraction unbound for each ex vivo placenta perfusion experiment.
smiles,measurement,value
"Cc1cc(=O)n(-c2ccccc2)n1C [Antipyrine, antipyrine]",Fraction unbound,95 ± 2%
